From article PMC7128415 (Journal of Clinical Virology, 2004)
Values after ≈ are worked out from the molar mass of the structure shown. Read-outs that look alike come from different tables or passages of the source.

Legend:
various viruses = conditions: cited from earlier work
[1] = in vivo, cited from earlier work
SARS coronavirus [2] = tested on: SARS coronavirus
[3] = tested on: rhinovirus, coronavirus, and respiratory syncytial virus; conditions: in vivo; cited from earlier work
rhinovirus = conditions: in vivo; cited from earlier work
CMV = conditions: human, in vivo; cited from earlier work
genital herpes = conditions: in vivo; cited from earlier work
SARS coronavirus [4] = experiment: microbe, parasite or virus in culture; conditions: Severe acute respiratory syndrome coronavirus, FRhK-4, 48 h, read-out: EC50 at 48 h
SARS coronavirus [5] = experiment: microbe, parasite or virus in culture; format: cell-based; conditions: Severe acute respiratory syndrome coronavirus, Vero, read-out: EC50 (plaque reduction assay)
SARS coronavirus [6] = format: cell-based
in vitro = conditions: rhesus monkey
[7] = human, in vivo, po
[8] = tested on: HIV-1 reverse transcriptase; conditions: cited from earlier work
HIV-1 = conditions: cited from earlier work
SARS-associated virus = conditions: cited from earlier work

O=C(/C=C/c1ccc(O)c(O)c1)O[C@@H]1C[C@](O)(C(=O)O)C[C@@H](O)[C@H]1O [Chlorogenic acid, chlorogenic acid]
Antiviral effect (various viruses): Inhibition of various viruses
Serum level (after intravenous administration), Cmax [1]: Cmax = 34 μg/ml (24 mg per person)
inhibitory activities in initial screening (SARS coronavirus [2]): not detectable

NC12CC3CC(CC(C3)C1)C2 [amantadine]
inhibitory activities in initial screening (SARS coronavirus [2]): did not reveal inhibitory activities

interferon-alpha
protection against experimental human infection [3]: protect
protection against rhinovirus-induced common cold (rhinovirus): protective
preventing CMV infections or treating CMV pneumonia (CMV): not effective
reduction in symptoms or lesion duration of genital herpes (genital herpes): did not produce a consistent reduction

CC(N)C12CC3CC(CC(C3)C1)C2 (stereo not shown) [Rimantadine, rimantadine]
EC50 (SARS coronavirus [4]): 8 to 16 µg/mL (≈ 44.6 to 89.2 µM)
EC50 (SARS coronavirus [5]): 7 µg/mL (≈ 39 µM)
activity in Vero-E6 cell line compared with fRhK-4 (SARS coronavirus [6]): more active
CC50 (in vitro): 64 µg/mL (≈ 357 µM)
EC50 at 48 h (SARS coronavirus [2]): 16 µg/mL (≈ 89.2 µM)
antiviral activities (SARS coronavirus [2]): detectable antiviral activities
antiviral activity (SARS coronavirus [2]): showed antiviral activity
inhibitory activities by neutralization tests (SARS coronavirus [2]): detectable inhibitory activities

Cc1cn([C@H]2C[C@H](N=[N+]=[N-])[C@@H](CO)O2)c(=O)[nH]c1=O [zidovudine]
inhibitory activities in initial screening (SARS coronavirus [2]): did not reveal inhibitory activities

NC(=O)c1ncn([C@@H]2O[C@H](CO)[C@@H](O)[C@H]2O)n1 [Ribavirin, ribavirin]
EC50 (SARS coronavirus [5]): 50 µg/mL (≈ 205 µM)
activity in Vero-E6 cell line compared with fRhK-4 (SARS coronavirus [6]): less active
CC50 (in vitro): > 1000 µg/mL
SI = CC50/EC50 at 48 h (SARS coronavirus [2]): 5 to >80
antiviral activities (SARS coronavirus [2]): detectable antiviral activities
antiviral activity (SARS coronavirus [2]): showed antiviral activity
inhibitory activities by neutralization tests (SARS coronavirus [2]): detectable inhibitory activities

O=C(O)[C@H]1O[C@@H](Oc2cc3oc(-c4ccccc4)cc(=O)c3c(O)c2O)[C@H](O)[C@@H](O)[C@@H]1O [Baicalin, baicalin]
EC50 (SARS coronavirus [4]): 12.5 to 25 µg/mL (≈ 28 to 56 µM)
EC50 (SARS coronavirus [5]): 11 µg/mL (≈ 24.6 µM)
serum concentration [7]: 470 ng/mL
activity in Vero-E6 cell line compared with fRhK-4 (SARS coronavirus [6]): less active
inhibition of HIV-1 reverse transcriptase [8]: known to inhibit HIV-1 reverse transcriptase
Antiviral effect (HIV-1): Inhibition of HIV-1
inhibition of HIV-1 (HIV-1): shown to inhibit HIV-1
Serum level (after oral administration), Cmax ([1]; human, po): Cmax = 60 ng/ml (189.8 mg per person, in human). The amount (i.e., 189.8 mg per person) used for the experiment is very low
Half life (in humans) ([1]; human): ∼3 h
Serum level (after intravenous administration), Cmax [1]: Cmax = 74 μg/ml (360 mg per person)
CC50 (in vitro): > 100 µg/mL
EC50 at 48 h (SARS coronavirus [2]): 12.5 µg/mL (≈ 28 µM)
SI = CC50/EC50 at 48 h (SARS coronavirus [2]): >4 to 8
antiviral activities (SARS coronavirus [2]): detectable antiviral activities
antiviral activity (SARS coronavirus [2]): showed antiviral activity
inhibitory activities by neutralization tests (SARS coronavirus [2]): detectable inhibitory activities

Nc1nc2c(ncn2COCCO)c(=O)[nH]1 [acyclovir]
inhibitory activities in initial screening (SARS coronavirus [2]): did not reveal inhibitory activities

O=C(O)P(=O)(O)O [foscarnet]
inhibitory activities in initial screening (SARS coronavirus [2]): did not reveal inhibitory activities

Nc1nc(NC2CC2)c2ncn([C@H]3C=C[C@@H](CO)C3)c2n1 [abacavir]
inhibitory activities in initial screening (SARS coronavirus [2]): did not reveal inhibitory activities

CC1(C)[C@@H](O[C@H]2O[C@H](C(=O)O)[C@@H](O)[C@H](O)[C@H]2O[C@@H]2O[C@H](C(=O)O)[C@@H](O)[C@H](O)[C@H]2O)CC[C@]2(C)[C@H]3C(=O)C=C4[C@@H]5C[C@@](C)(C(=O)O)CC[C@]5(C)CC[C@@]4(C)[C@]3(C)CC[C@@H]12 [Glycyrrhizin, glycyrrhizin]
EC50 (SARS coronavirus [4]): > 400 µg/mL
activity in Vero-E6 cell line compared with fRhK-4 (SARS coronavirus [6]): more active
Antiviral effect (SARS-associated virus): Inhibition of SARS-associated virus
activity in Vero-E6 cell lines (SARS-associated virus): reported to be active
antiviral activity against SARS coronavirus (SARS-associated virus): significant antiviral activity
Half life (in humans) ([1]; human): ∼10 h
Serum level (after intravenous administration), Cmax [1]: Cmax = 80 μg/ml (200 mg per person)
CC50 (in vitro): > 400 µg/mL
antiviral activity (SARS coronavirus [2]): showed antiviral activity
inhibitory activities in initial screening (SARS coronavirus [2]): not detectable

Nc1nc(O)c2ncn(COC(CO)CO)c2n1 [ganciclovir]
inhibitory activities in initial screening (SARS coronavirus [2]): did not reveal inhibitory activities

Cc1ccnc2c1NC(=O)c1cccnc1N2C1CC1 [nevirapine]
inhibitory activities in initial screening (SARS coronavirus [2]): did not reveal inhibitory activities

Cc1cn([C@H]2C=C[C@@H](CO)O2)c(=O)[nH]c1=O [stavudine]
inhibitory activities in initial screening (SARS coronavirus [2]): did not reveal inhibitory activities

Nc1ccn(C[C@@H](CO)OCP(=O)(O)O)c(=O)n1 [cidofovir]
inhibitory activities in initial screening (SARS coronavirus [2]): did not reveal inhibitory activities

Cc1cccc(C)c1OCC(=O)N[C@@H](Cc1ccccc1)[C@@H](O)C[C@H](Cc1ccccc1)NC(=O)[C@H](C(C)C)N1CCCNC1=O [Lopinavir, lopinavir]
EC50 (SARS coronavirus [4]): 1 to 4 µg/mL (≈ 1.59 to 6.36 µM)
EC50 (SARS coronavirus [5]): 6 µg/mL (≈ 9.54 µM)
activity in Vero-E6 cell line compared with fRhK-4 (SARS coronavirus [6]): less active
CC50 (in vitro): 32 µg/mL (≈ 50.9 µM)
antiviral activities (SARS coronavirus [2]): detectable antiviral activities
antiviral activity (SARS coronavirus [2]): showed antiviral activity
inhibitory activities by neutralization tests (SARS coronavirus [2]): detectable inhibitory activities

C[C@H]1[C@H](OC(=O)CCC(=O)O)O[C@@H]2O[C@@]3(C)CC[C@H]4[C@H](C)CC[C@@H]1[C@@]24OO3 [artesunate]
inhibitory activities in initial screening (SARS coronavirus [2]): not detectable

CC(C)c1nc(CN(C)C(=O)N[C@H](C(=O)N[C@@H](Cc2ccccc2)C[C@H](O)[C@H](Cc2ccccc2)NC(=O)OCc2cncs2)C(C)C)cs1 [ritonavir]
inhibitory activities in initial screening (SARS coronavirus [2]): did not reveal inhibitory activities

B1: Interferon-gamma: Interferon-gamma, reported in the literature (protein, UniProt P01579 24-161, looked up)
Interferon gamma: QDPYVKEAENLKKYFNAGHSDVADNGTLFLGILKNWKEESDRKIMQSQIVSFYFKLFKNFKDDQSIQKSVETIKEDMNVKFFNSNKKKRDDFEKLTNYSVTDLNVQRKAIHELIQVMAELSPAAKTGKRKRSQMLFRG
antiviral activity against SARS coronavirus (SARS-associated virus): not to possess antiviral activity
